# Laboratory results from ChEMBL document CHEMBL1955725, “Structure-guided lead optimization of triazolopyrimidine-ring substituents identifies potent Plasmodium falciparum dihydroorotate dehydrogenase inhibitors with clinical candidate potential” (J Med Chem, 2011).
# Test system: Plasma
# Assay: Plasma protein binding in human by chromatographic method
# Assay type: ADME, cell-free
# Settings: not given
row,Compound,PPB
1,Cc1cc(Nc2ccc(Cl)cc2)n2nc(C(C)C)nc2n1,84.9%
2,CCOc1nc2nc(C)cc(Nc3ccc(S(F)(F)(F)(F)F)cc3)n2n1,97.7%
3,CCc1nc2nc(C)cc(Nc3ccc(C(F)(F)F)cc3)n2n1,87.5%
4,CCC(F)(F)c1nc2nc(C)cc(Nc3ccc(C(F)(F)F)cc3)n2n1,93.2%
5,CSc1nc2nc(C)cc(Nc3ccc(C(F)(F)F)cc3)n2n1,91.8%
6,CCc1nc2nc(C)cc(Nc3ccc(Cl)cc3)n2n1,86.1%
7,Cc1cc(Nc2ccc(C(F)(F)F)cc2)n2nc(C3CC3)nc2n1,92.8%
8,COCc1nc2nc(C)cc(Nc3ccc(S(F)(F)(F)(F)F)cc3)n2n1,91.7%

# Test system: Liver microsomes
# Assay: Intrinsic clearance in human liver microsomes
# Assay type: ADME, Microsome
# Settings: not given
row,Compound,Intrinsic clearance
1,Cc1cc(Nc2ccc(Cl)cc2)n2nc(C(C)C)nc2n1,14.1 µL/min/mg
2,CCOc1nc2nc(C)cc(Nc3ccc(S(F)(F)(F)(F)F)cc3)n2n1,< 5 µL/min/mg
3,CCc1nc2nc(C)cc(Nc3ccc(C(F)(F)F)cc3)n2n1,< 5 µL/min/mg
4,CCC(F)(F)c1nc2nc(C)cc(Nc3ccc(C(F)(F)F)cc3)n2n1,< 5 µL/min/mg
5,CSc1nc2nc(C)cc(Nc3ccc(C(F)(F)F)cc3)n2n1,18.7 µL/min/mg
6,CCc1nc2nc(C)cc(Nc3ccc(Cl)cc3)n2n1,12.8 µL/min/mg
7,Cc1cc(Nc2ccc(C(F)(F)F)cc2)n2nc(C3CC3)nc2n1,< 5 µL/min/mg
8,COCc1nc2nc(C)cc(Nc3ccc(S(F)(F)(F)(F)F)cc3)n2n1,5.6 µL/min/mg

# Test system: Liver
# Assay: Intrinsic clearance in mouse liver microsomes
# Assay type: ADME, Microsome
# Settings: not given
row,Compound,Intrinsic clearance
1,Cc1cc(Nc2ccc(Cl)cc2)n2nc(C(C)C)nc2n1,157.7 µL/min/mg
2,CCOc1nc2nc(C)cc(Nc3ccc(S(F)(F)(F)(F)F)cc3)n2n1,11.3 µL/min/mg
3,CCc1nc2nc(C)cc(Nc3ccc(C(F)(F)F)cc3)n2n1,14.4 µL/min/mg
4,CCC(F)(F)c1nc2nc(C)cc(Nc3ccc(C(F)(F)F)cc3)n2n1,6.5 µL/min/mg
5,CSc1nc2nc(C)cc(Nc3ccc(C(F)(F)F)cc3)n2n1,76.9 µL/min/mg
6,CCc1nc2nc(C)cc(Nc3ccc(Cl)cc3)n2n1,63.1 µL/min/mg
7,Cc1cc(Nc2ccc(C(F)(F)F)cc2)n2nc(C3CC3)nc2n1,8.6 µL/min/mg
8,COCc1nc2nc(C)cc(Nc3ccc(S(F)(F)(F)(F)F)cc3)n2n1,14.3 µL/min/mg

# Test system: not listed separately
# Assay: Terminal elimination half life in Swiss outbred mouse at 10 mg/kg, po
# Assay type: ADME, organism-based
# Set-up: dose 10 mg/kg, route oral
# Settings: in vivo, read-out: beta t1/2 (converted)
row,Compound,half-life
1,CCC(F)(F)c1nc2nc(C)cc(Nc3ccc(C(F)(F)F)cc3)n2n1,3.1 h

# Test system: not listed separately
# Assay: Cmax in Swiss outbred mouse at 10 mg/kg, po
# Assay type: ADME, organism-based
# Set-up: dose 10 mg/kg, route oral
# Settings: in vivo
row,Compound,Cmax
1,CCC(F)(F)c1nc2nc(C)cc(Nc3ccc(C(F)(F)F)cc3)n2n1,3.5 µM

# Test system: not listed separately
# Assay: AUC (0 to infinity) in Swiss outbred mouse plasma at 10 mg/kg, po
# Assay type: ADME, organism-based
# Set-up: time infinity, dose 10 mg/kg, route oral
# Settings: not given
row,Compound,AUC(0-inf)
1,CCC(F)(F)c1nc2nc(C)cc(Nc3ccc(C(F)(F)F)cc3)n2n1,10.9 µM·h

# Test system: Mus musculus
# Assay: Time plasma concentration remained above 1 uM in Swiss outbred mouse plasma at 10 mg/kg, po
# Assay type: ADME, organism-based
# Set-up: dose 10 mg/kg, route oral
# Settings: in vivo
row,Compound,Time
1,CCC(F)(F)c1nc2nc(C)cc(Nc3ccc(C(F)(F)F)cc3)n2n1,4 h

# Test system: not listed separately
# Assay: Terminal elimination half life in Swiss outbred mouse at 20 mg/kg, po
# Assay type: ADME, organism-based
# Set-up: dose 20 mg/kg, route oral
# Settings: in vivo, read-out: beta t1/2 (converted)
row,Compound,half-life
1,CCOc1nc2nc(C)cc(Nc3ccc(S(F)(F)(F)(F)F)cc3)n2n1,2.7 h
2,CCc1nc2nc(C)cc(Nc3ccc(C(F)(F)F)cc3)n2n1,8.4 h

# Test system: not listed separately
# Assay: Cmax in Swiss outbred mouse at 20 mg/kg, po
# Assay type: ADME, organism-based
# Set-up: dose 20 mg/kg, route oral
# Settings: in vivo
row,Compound,Cmax
1,CCOc1nc2nc(C)cc(Nc3ccc(S(F)(F)(F)(F)F)cc3)n2n1,1.1 µM
2,CCc1nc2nc(C)cc(Nc3ccc(C(F)(F)F)cc3)n2n1,12.6 µM

# Test system: Mus musculus
# Assay: Time plasma concentration remained above 1 uM in Swiss outbred mouse plasma at 20 mg/kg, po
# Assay type: ADME, organism-based
# Set-up: dose 20 mg/kg, route oral
# Settings: in vivo
row,Compound,Time
1,CCOc1nc2nc(C)cc(Nc3ccc(S(F)(F)(F)(F)F)cc3)n2n1,3 h
2,CCc1nc2nc(C)cc(Nc3ccc(C(F)(F)F)cc3)n2n1,5 h

# Test system: not listed separately
# Assay: AUC (0 to infinity) in Swiss outbred mouse plasma at 20 mg/kg, po
# Assay type: ADME, organism-based
# Set-up: time infinity, dose 20 mg/kg, route oral
# Settings: not given
row,Compound,AUC(0-inf)
1,CCOc1nc2nc(C)cc(Nc3ccc(S(F)(F)(F)(F)F)cc3)n2n1,10.1 µM·h
2,CCc1nc2nc(C)cc(Nc3ccc(C(F)(F)F)cc3)n2n1,27.1 µM·h

# Test system: not listed separately
# Assay: Inhibition of Plasmodium berghei C-terminal hexa-His tagged DHODH expressed in Escherichia coli by DCIP reduction assay
# Settings: not given
row,Compound,IC50
1,Cc1cc(Nc2ccc(Cl)cc2)n2nc(C(C)C)nc2n1,2100 nM
2,CCOc1nc2nc(C)cc(Nc3ccc(S(F)(F)(F)(F)F)cc3)n2n1,470 nM
3,CCc1nc2nc(C)cc(Nc3ccc(C(F)(F)F)cc3)n2n1,760 nM
4,CCC(F)(F)c1nc2nc(C)cc(Nc3ccc(C(F)(F)F)cc3)n2n1,2500 nM
5,CSc1nc2nc(C)cc(Nc3ccc(C(F)(F)F)cc3)n2n1,4800 nM
6,CCc1nc2nc(C)cc(Nc3ccc(Cl)cc3)n2n1,2300 nM
7,Cc1cc(Nc2ccc(C(F)(F)F)cc2)n2nc(C3CC3)nc2n1,2600 nM
8,COCc1nc2nc(C)cc(Nc3ccc(S(F)(F)(F)(F)F)cc3)n2n1,3300 nM

# Test system: Plasmodium falciparum
# Assay: Antimalarial activity against Plasmodium falciparum 3D7 by [3H]hypoxanthine incorporation assay in presence of human serum
# Assay type: functional, organism-based
# Settings: not given
row,Compound,EC50
1,Cc1cc(Nc2ccc(Cl)cc2)n2nc(C(C)C)nc2n1,850 nM
2,CCOc1nc2nc(C)cc(Nc3ccc(S(F)(F)(F)(F)F)cc3)n2n1,100 nM
3,CCc1nc2nc(C)cc(Nc3ccc(C(F)(F)F)cc3)n2n1,58 nM
4,CCC(F)(F)c1nc2nc(C)cc(Nc3ccc(C(F)(F)F)cc3)n2n1,45 nM
5,CSc1nc2nc(C)cc(Nc3ccc(C(F)(F)F)cc3)n2n1,8.4 nM
6,CCc1nc2nc(C)cc(Nc3ccc(Cl)cc3)n2n1,790 nM
7,Cc1cc(Nc2ccc(C(F)(F)F)cc2)n2nc(C3CC3)nc2n1,150 nM
8,COCc1nc2nc(C)cc(Nc3ccc(S(F)(F)(F)(F)F)cc3)n2n1,2100 nM

# Test system: not listed separately
# Assay: Lipophilicity, log D of the compound at pH 7.4
# Assay type: physicochemical
# Settings: buffer
row,Compound,logD
1,Cc1cc(Nc2ccc(Cl)cc2)n2nc(C(C)C)nc2n1,3.2
2,CCOc1nc2nc(C)cc(Nc3ccc(S(F)(F)(F)(F)F)cc3)n2n1,3.4
3,CCc1nc2nc(C)cc(Nc3ccc(C(F)(F)F)cc3)n2n1,3
4,CCC(F)(F)c1nc2nc(C)cc(Nc3ccc(C(F)(F)F)cc3)n2n1,3.6
5,CSc1nc2nc(C)cc(Nc3ccc(C(F)(F)F)cc3)n2n1,3.2
6,CCc1nc2nc(C)cc(Nc3ccc(Cl)cc3)n2n1,2.8
7,Cc1cc(Nc2ccc(C(F)(F)F)cc2)n2nc(C3CC3)nc2n1,3.3
8,COCc1nc2nc(C)cc(Nc3ccc(S(F)(F)(F)(F)F)cc3)n2n1,2.8

# Test system: not listed separately
# Assay: Aqueous solubility of the compound at pH 6.5
# Assay type: physicochemical
# Settings: not given
row,Compound,solubility
1,Cc1cc(Nc2ccc(Cl)cc2)n2nc(C(C)C)nc2n1,83 µM
2,CCOc1nc2nc(C)cc(Nc3ccc(S(F)(F)(F)(F)F)cc3)n2n1,4 µM
3,CCc1nc2nc(C)cc(Nc3ccc(C(F)(F)F)cc3)n2n1,39 µM
4,CCC(F)(F)c1nc2nc(C)cc(Nc3ccc(C(F)(F)F)cc3)n2n1,17 µM
5,CSc1nc2nc(C)cc(Nc3ccc(C(F)(F)F)cc3)n2n1,19 µM
6,CCc1nc2nc(C)cc(Nc3ccc(Cl)cc3)n2n1,170 µM
7,Cc1cc(Nc2ccc(C(F)(F)F)cc2)n2nc(C3CC3)nc2n1,38 µM
8,COCc1nc2nc(C)cc(Nc3ccc(S(F)(F)(F)(F)F)cc3)n2n1,63 µM

# Biological target: T1, Dihydroorotate dehydrogenase (Plasmodium falciparum, UniProt Q54A96)
# T1 sequence (Q54A96 whole entry): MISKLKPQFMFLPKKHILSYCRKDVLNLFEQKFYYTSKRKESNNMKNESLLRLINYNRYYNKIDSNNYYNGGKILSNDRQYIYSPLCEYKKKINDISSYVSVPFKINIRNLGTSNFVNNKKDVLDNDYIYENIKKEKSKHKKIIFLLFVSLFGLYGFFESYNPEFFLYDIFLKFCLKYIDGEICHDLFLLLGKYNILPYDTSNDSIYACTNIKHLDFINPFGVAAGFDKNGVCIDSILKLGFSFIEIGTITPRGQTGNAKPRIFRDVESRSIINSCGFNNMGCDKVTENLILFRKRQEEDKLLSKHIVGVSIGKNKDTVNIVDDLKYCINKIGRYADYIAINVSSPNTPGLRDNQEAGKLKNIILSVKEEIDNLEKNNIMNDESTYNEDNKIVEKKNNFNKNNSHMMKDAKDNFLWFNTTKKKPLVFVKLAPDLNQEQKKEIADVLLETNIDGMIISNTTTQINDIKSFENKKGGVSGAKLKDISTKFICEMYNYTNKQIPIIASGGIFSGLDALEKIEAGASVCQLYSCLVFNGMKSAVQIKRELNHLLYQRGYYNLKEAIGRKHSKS
# Assay: not given
# Settings: not given
row,Compound,IC50
1,Cc1cc(Nc2ccc(Cl)cc2)n2nc(C(C)C)nc2n1,330 nM
2,CCOc1nc2nc(C)cc(Nc3ccc(S(F)(F)(F)(F)F)cc3)n2n1,57 nM
3,CCc1nc2nc(C)cc(Nc3ccc(C(F)(F)F)cc3)n2n1,87 nM
4,CCC(F)(F)c1nc2nc(C)cc(Nc3ccc(C(F)(F)F)cc3)n2n1,19 nM
5,CSc1nc2nc(C)cc(Nc3ccc(C(F)(F)F)cc3)n2n1,36 nM
6,CCc1nc2nc(C)cc(Nc3ccc(Cl)cc3)n2n1,280 nM
7,Cc1cc(Nc2ccc(C(F)(F)F)cc2)n2nc(C3CC3)nc2n1,140 nM
8,COCc1nc2nc(C)cc(Nc3ccc(S(F)(F)(F)(F)F)cc3)n2n1,390 nM

# Biological target: Dihydroorotate dehydrogenase (quinone), mitochondrial (Homo sapiens, UniProt Q02127)
# Assay: not given
# Settings: not given
# Sequence of Dihydroorotate dehydrogenase (quinone), mitochondrial (Q02127 whole entry): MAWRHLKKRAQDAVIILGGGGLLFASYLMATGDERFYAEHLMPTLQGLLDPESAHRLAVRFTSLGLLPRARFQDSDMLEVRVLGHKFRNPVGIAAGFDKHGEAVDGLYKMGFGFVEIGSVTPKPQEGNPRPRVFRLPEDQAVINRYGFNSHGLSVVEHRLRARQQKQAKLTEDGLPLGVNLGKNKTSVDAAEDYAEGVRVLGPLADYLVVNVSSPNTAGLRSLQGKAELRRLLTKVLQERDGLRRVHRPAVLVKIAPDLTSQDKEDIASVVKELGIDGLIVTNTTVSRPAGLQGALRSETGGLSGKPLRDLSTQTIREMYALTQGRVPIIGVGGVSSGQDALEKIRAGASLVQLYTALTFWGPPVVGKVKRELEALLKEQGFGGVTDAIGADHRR
row,Compound,IC50
1,CCOc1nc2nc(C)cc(Nc3ccc(S(F)(F)(F)(F)F)cc3)n2n1,> 100000 nM
2,CCc1nc2nc(C)cc(Nc3ccc(C(F)(F)F)cc3)n2n1,> 100000 nM
3,CCC(F)(F)c1nc2nc(C)cc(Nc3ccc(C(F)(F)F)cc3)n2n1,> 100000 nM
4,Cc1cc(Nc2ccc(C(F)(F)F)cc2)n2nc(C3CC3)nc2n1,> 100000 nM

# Test system: not listed separately
# Assay: in vivo
# Settings: Swiss outbred, mouse, po, 10 mg/kg
row,Compound,Tmax
1,CCC(F)(F)c1nc2nc(C)cc(Nc3ccc(C(F)(F)F)cc3)n2n1,0.5 h

# Test system: not listed separately
# Assay: in vivo
# Settings: Swiss outbred, mouse, po, 20 mg/kg
row,Compound,Tmax
1,CCOc1nc2nc(C)cc(Nc3ccc(S(F)(F)(F)(F)F)cc3)n2n1,1 h
2,CCc1nc2nc(C)cc(Nc3ccc(C(F)(F)F)cc3)n2n1,1 h
